Values joined by “and” are separate entries in the source; they are usually repeats but may differ in a detail not shown here. Equal values may be shown once.
Assays:
[1] = Dose-response of purified LHGFR for D-2-HG in buffer; type: binding
Method: Purified L-2-HG biosensors and different compounds were diluted by 50 mM Tris-HCl buffer (pH 7.4), mixed together in a black 96-well plate at a volume ratio of 3:1, and the fluorescence intensities were measured using an EnSight microplate reader (PerkinElmer, USA) with excitation at 430 nm, emission at 485 nm (mTFP) and 528 nm (Venus). The dose-response curves were fitted by OriginPro 2016 software (OriginLab) according to the following formula:1 R=Rmax+Rmin−Rmax/1+([L-2-HG]/Kd)^p where R, Rmin, and Rmax refer to the emission ratio of Venus to mTFP, ratio in the absence of L-2-HG, and ratio at saturation with L-2-HG, respectively. The [L-2-HG], Kd, and p refer to the L-2-HG concentration, apparent dissociation constant, and Hill slope, respectively. Emission spectra were recorded at 430 nm excitation, in steps of 2 nm. Excitation spectra were recorded using emission at 550 nm, excitation from 380 to 535 nm in steps of 2 nm.

[2] = system: LHGFR0N7C; test: Specificity of purified LHGFR0N7C, emission ratio with 240 μM compounds; type: binding, Pseudomonas putida W619; details: 240 μM compound
[3] = system: LHGFR0N3C; test: Influence of other compounds on the response of purified LHGFR0N3C to L-2-HG; type: binding, Pseudomonas putida W619
Outline: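 Purified L-2-HG biosensors were mixed 3:1 with test compounds in 50 mM Tris-HCl pH 7.4, excited at 430 nm, and the 528 nm (Venus)/485 nm (mTFP) emission was read. Responses were fitted with a Hill model giving apparent Kd and Hill slope.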

[4] = system: LHGFR0N3C expressed in E. coli BL21(DE3); test: Specificity of LHGFR0N3C expressed in E. coli BL21(DE3), 1 mM compounds; type: cell-based; details: for Emission ratio: 1 mM compound, Fig. 5c
Method: To characterize the sensitivity and specificity of LHGFR expressed in E. coli BL21(DE3), 90 μL cell suspensions following 8 h carbon starvation were mixed with 10 μL increasing concentrations of L-2-HG or other compounds, and then added into a black 96-well plate (total 100 μL/per well), the fluorescence intensities were determined using an EnSight microplate reader (PerkinElmer, USA) and the following instrument settings: excitation at 430 nm, emission at 485 nm (mTFP) and 528 nm (Venus), time intervals of 5 min, the temperature at 37 °C, and shake at 180 rpm.

SMILES: O=C(O)CC[C@@H](O)C(=O)O [D-2-HG]
- Emission ratio of 528/485 ([1]; 2-HG concentration 0.01, Suppl. Fig. 9c): 1.387 and 1.378 and 1.399
- Emission ratio of 528/485 ([1]; 2-HG concentration 0.01, Suppl. Fig. 9d): 1.657 and 1.673 and 1.678
- Emission ratio of 528/485 ([1]; 2-HG concentration 0.1, Suppl. Fig. 9c): 1.372 and 1.375 and 1.382
- Emission ratio of 528/485 ([1]; 2-HG concentration 0.1, Suppl. Fig. 9d): 1.659 and 1.671 and 1.687
- Emission ratio of 528/485 ([1]; 2-HG concentration 0.2, Suppl. Fig. 9c): 1.374 and 1.387 and 1.391
- Emission ratio of 528/485 ([1]; 2-HG concentration 0.2, Suppl. Fig. 9d): 1.6456 and 1.673 and 1.682
- Emission ratio of 528/485 ([1]; 2-HG concentration 1, Suppl. Fig. 9c): 1.374 and 1.373 and 1.392
- Emission ratio of 528/485 ([1]; 2-HG concentration 1, Suppl. Fig. 9d): 1.662 and 1.681 and 1.683
- Emission ratio of 528/485 ([1]; 2-HG concentration 2, Suppl. Fig. 9c): 1.367 and 1.388 and 1.39
- Emission ratio of 528/485 ([1]; 2-HG concentration 2, Suppl. Fig. 9d): 1.647 and 1.673 and 1.676
- Emission ratio of 528/485 ([1]; 2-HG concentration 10, Suppl. Fig. 9c): 1.374 and 1.398 and 1.395
- Emission ratio of 528/485 ([1]; 2-HG concentration 10, Suppl. Fig. 9d): 1.662 and 1.69 and 1.707
- Emission ratio of 528/485 ([1]; 2-HG concentration 20, Suppl. Fig. 9c): 1.362 and 1.378 and 1.389
- Emission ratio of 528/485 ([1]; 2-HG concentration 20, Suppl. Fig. 9d): 1.665 and 1.705 and 1.723
- Emission ratio of 528/485 ([1]; 2-HG concentration 100, Suppl. Fig. 9c): 1.381 and 1.406 and 1.415
- Emission ratio of 528/485 ([1]; 2-HG concentration 100, Suppl. Fig. 9d): 1.815 and 1.829 and 1.846
- Emission ratio of 528/485 ([1]; 2-HG concentration 200, Suppl. Fig. 9c): 1.404 and 1.432 and 1.433
- Emission ratio of 528/485 ([1]; 2-HG concentration 200, Suppl. Fig. 9d): 1.932 and 1.978 and 1.981
- Emission ratio of 528/485 ([1]; 2-HG concentration 1000, Suppl. Fig. 9c): 1.525 and 1.561 and 1.565
- Emission ratio of 528/485 ([1]; 2-HG concentration 1000, Suppl. Fig. 9d): 2.255 and 2.2953 and 2.327
- Emission ratio of 528/485 ([1]; 2-HG concentration 2000, Suppl. Fig. 9c): 1.698 and 1.693 and 1.687
- Emission ratio of 528/485 ([1]; 2-HG concentration 2000, Suppl. Fig. 9d): 2.559 and 2.546 and 2.55
- Emission ratio [2]: 1.984 and 1.994 and 1.98
- Influence on the response of LHGFR0N3C to L-2-HG ([3]; 240 μM D-2-HG, 1 mM 2-KG or 1 mM ATP for dose-response curves): could barely affect the response of LHGFR0N3C to L-2-HG
- Emission ratio ([3]; Suppl. Fig. 9a, L-2-HG alone or with the compound, three replicates): 2.0547 and 2.056 and 2.045
- Emission ratio ([4]; 0 min): 1.011 and 0.989 and 0.9926
- Emission ratio ([4]; 5 min): 1.03 and 1.001 and 1.013
- Emission ratio ([4]; 10 min): 1.043 and 1.03 and 1.027
- Emission ratio ([4]; 15 min): 1.0445 and 1.033 and 1.032
- Emission ratio ([4]; 20 min): 1.062 and 1.044 and 1.049
- Emission ratio ([4]; 25 min): 1.051 and 1.047 and 1.058
- Emission ratio ([4]; 30 min): 1.07 and 1.05 and 1.058
- Emission ratio ([4]; 35 min): 1.071 and 1.055 and 1.07
- Emission ratio ([4]; 40 min): 1.061 and 1.059 and 1.064
- Emission ratio ([4]; 45 min): 1.071 and 1.057 and 1.074
- Emission ratio ([4]; 50 min): 1.071 and 1.056 and 1.075
- Emission ratio ([4]; 55 min): 1.074 and 1.067 and 1.073
- Emission ratio ([4]; 60 min): 1.07 (2×) and 1.065
- Emission ratio ([4]; 65 min): 1.082 (2×) and 1.064
- Emission ratio ([4]; 70 min): 1.08 and 1.068 and 1.078
- Emission ratio ([4]; 75 min): 1.08 and 1.07 and 1.0822
- Emission ratio ([4]; 80 min): 1.068 and 1.078 and 1.077
- Emission ratio ([4]; 85 min): 1.078 and 1.065 and 1.085
- Emission ratio ([4]; 90 min): 1.07 and 1.071 and 1.074
- Increase of the emission ratio in E. coli BL21(DE3) ([4]; 1 mM exogenous compound): could not
